# Assay results as given in the supplement of paper PMC9663587.
# Legend:
# Assay in all cases: area over the GR curve, 72 h; higher = more effect;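 further: Dye Drop or Deep Dye Drop imaging of viable cells in 384-well plates (Hoechst nuclei, LIVE/DEAD dye), nine half-log doses, GR normalized to DMSO controls and time-zero plates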
# HCC1937 = tested on: HCC1937
# MDAMB468 = tested on: MDAMB468
# UACC812 = tested on: UACC812
# HCC1806 = tested on: HCC1806
# PDXHCI002 = tested on: PDXHCI002
# SUM1315 = tested on: SUM1315
# HCC202 = tested on: HCC202
# BT20 = tested on: BT20
# ZR7530 = tested on: ZR7530
# EFM19 = tested on: EFM19
# HTERT_HME1 = tested on: HTERT_HME1
# SUM159 = tested on: SUM159
SMILES,area over the GR curve (HCC1937),area over the GR curve (MDAMB468),area over the GR curve (UACC812),area over the GR curve (HCC1806),area over the GR curve (PDXHCI002),area over the GR curve (SUM1315),area over the GR curve (HCC202),area over the GR curve (BT20),area over the GR curve (ZR7530),area over the GR curve (EFM19),area over the GR curve (HTERT_HME1),area over the GR curve (SUM159)
COc1cc(N2CCN(C)CC2)ccc1Nc1ncc2c(n1)N(C)c1ccccc1C(=O)N2CC(F)(F)F [FMF-03-146-1],0.0547 GR,0.0476 GR,0.0144 GR,0.0215 GR,-0.0147 GR,0.0401 GR,0.0146 GR,0.0278 GR,0.0601 GR,0.0185 GR,0.049 GR,0.0317 GR
CN1CC[C@H](c2c(O)cc(O)c3c(=O)cc(-c4ccccc4Cl)oc23)[C@H](O)C1 [Flavopiridol] (max 1 µM),0.238 GR,0.269 GR,0.419 GR,0.257 GR,0.278 GR,0.416 GR,0.273 GR,0.334 GR,0.236 GR,0.191 GR,0.319 GR,0.256 GR
CC(C)n1nc(-c2ccc3oc(N)nc3c2)c2c(N)ncnc21 [INK128/MLN0128] (max 3.162 µM),0.369 GR,0.502 GR,1.22 GR,0.39 GR,0.122 GR,0.647 GR,0.581 GR,0.568 GR,0.533 GR,0.682 GR,0.401 GR,0.356 GR
CC(C)NC[C@@H](C(=O)N1CCN(c2ncnc3c2[C@H](C)C[C@H]3O)CC1)c1ccc(Cl)cc1 [Ipatasertib/GDC0068] (max 10 µM),0.156 GR,0.223 GR,0.173 GR,0.0145 GR,-0.114 GR,0.124 GR,0.169 GR,0.311 GR,0.124 GR,0.185 GR,0.0249 GR,0.0758 GR
CN(C)C(=O)c1cc2cnc(Nc3ccc(N4CCNCC4)cn3)nc2n1C1CCCC1 [LEE011/Ribociclib] (max 10 µM),0.0156 GR,0.0162 GR,0.642 GR,0.141 GR,0.123 GR,0.35 GR,0.11 GR,0.433 GR,0.398 GR,0.315 GR,0.365 GR,0.244 GR
CCNC(=O)c1noc(-c2cc(C(C)C)c(O)cc2O)c1-c1ccc(CN2CCOCC2)cc1 [Luminespib/NVP-AUY922] (max 1 µM),0.548 GR,0.648 GR,0.881 GR,0.539 GR,0.7 GR,0.606 GR,0.431 GR,0.559 GR,0.536 GR,0.35 GR,0.633 GR,0.53 GR
CCOc1cc2ncc(C#N)c(Nc3ccc(OCc4ccccn4)c(Cl)c3)c2cc1NC(=O)/C=C/CN(C)C [Neratinib/HKI272] (max 3.162 µM),0.171 GR,0.386 GR,1.03 GR,0.191 GR,0.367 GR,0.364 GR,0.453 GR,0.147 GR,1.08 GR,0.0236 GR,0.265 GR,0.101 GR
O=C(c1cc(Cc2n[nH]c(=O)c3ccccc23)ccc1F)N1CCN(C(=O)C2CC2)CC1 [Olaparib/AZD2281] (max 10 µM),0.0584 GR,0.0573 GR,-0.0835 GR,0.0953 GR,0.167 GR,0.245 GR,0.127 GR,0.0657 GR,0.0601 GR,0.0595 GR,0.0258 GR,0.0296 GR
CC(=O)O[C@H]1C(=O)[C@@]2(C)[C@H]([C@H](OC(=O)c3ccccc3)[C@]3(O)C[C@H](OC(=O)[C@H](O)[C@@H](NC(=O)c4ccccc4)c4ccccc4)C(C)=C1C3(C)C)[C@]1(OC(C)=O)CO[C@@H]1C[C@@H]2O [Paclitaxel] (max 1 µM),0.658 GR,1.01 GR,1.44 GR,0.838 GR,0.921 GR,0.793 GR,0.552 GR,0.985 GR,0.868 GR,0.874 GR,0.676 GR,0.65 GR
CS(=O)(=O)N1CCN(Cc2cc3nc(-c4cccc5[nH]ncc45)nc(N4CCOCC4)c3s2)CC1 [Pictilisib/GDC0941] (max 10 µM),0.211 GR,0.205 GR,0.6 GR,0.118 GR,0.212 GR,0.371 GR,0.431 GR,0.296 GR,0.465 GR,0.439 GR,0.134 GR,0.129 GR
O=C1NC(=NCc2cccs2)SC1=Cc1ccc2ncccc2c1 [R0-3306] (max 10 µM),0.143 GR,0.185 GR,0.142 GR,0.085 GR,0.0778 GR,0.195 GR,0.14 GR,0.109 GR,0.113 GR,0.132 GR,0.0677 GR,0.0665 GR
CNCc1ccc(-c2[nH]c3cc(F)cc4c3c2CCNC4=O)cc1 [Rucaparib] (max 10 µM),0.0989 GR,0.101 GR,0.0535 GR,0.117 GR,0.0896 GR,0.371 GR,0.207 GR,0.0785 GR,0.25 GR,0.0332 GR,0.121 GR,0.0948 GR
CC1(N)CCN(c2cnc(-c3cccc(Cl)c3Cl)c(N)n2)CC1 [SHP099] (max 10 µM),0.0653 GR,0.134 GR,0.151 GR,-0.0155 GR,0.0735 GR,0.121 GR,0.051 GR,0.0072 GR,-0.0067 GR,-0.0009 GR,0.0778 GR,0.0503 GR
CN1CCN(CCOc2cc(OC3CCOCC3)c3c(Nc4c(Cl)ccc5c4OCO5)ncnc3c2)CC1 [Saracatinib/AZD0530] (max 10 µM),0.039 GR,0.139 GR,0.875 GR,0.233 GR,0.512 GR,0.244 GR,0.396 GR,0.159 GR,0.399 GR,0.149 GR,-0.0453 GR,0.0365 GR
Cc1cc(C(C)Nc2ccccc2)c2nc(N3CCOCC3)cc(=O)n2c1 (stereo not given) [TGX221] (max 10 µM),0.0193 GR,0.103 GR,0.523 GR,-0.02 GR,-0.0291 GR,0.136 GR,-0.0253 GR,-0.0612 GR,-0.0239 GR,0.0431 GR,-0.0608 GR,-0.0235 GR
CN(C)C/C=C/C(=O)Nc1ccc(C(=O)Nc2cccc(Nc3ncc(Cl)c(-c4c[nH]c5ccccc45)n3)c2)cc1 [THZ1] (max 1 µM),0.348 GR,0.48 GR,0.0711 GR,0.367 GR,0.527 GR,0.229 GR,0.42 GR,0.108 GR,0.561 GR,0.159 GR,0.76 GR,0.161 GR
CN(C)C/C=C/C(=O)Nc1ccc(C(=O)N2CCC[C@@H](Nc3ncc(Cl)c(-c4c[nH]c5ccccc45)n3)C2)cc1 [THZ531] (max 1 µM),0.176 GR,0.404 GR,0.0619 GR,0.134 GR,0.352 GR,0.148 GR,0.3 GR,0.0416 GR,0.472 GR,0.167 GR,0.182 GR,0.0413 GR
CN(C)C/C=C/C(=O)Nc1ccc(C(=O)Nc2cccc(Nc3cc(-c4c[nH]c5ccccc45)ncn3)c2)cc1 [THZ-P1-2] (max 10 µM),0.288 GR,0.344 GR,0.0711 GR,0.199 GR,0.153 GR,0.0029 GR,0.0733 GR,0.137 GR,0.474 GR,0.131 GR,0.107 GR,0.127 GR
Cc1nc(-c2cn3c(n2)-c2ccc(-c4cnn(C(C)(C)C(N)=O)c4)cc2OCC3)n(C(C)C)n1 [Taselisib/GDC0032] (max 10 µM),0.277 GR,0.217 GR,0.693 GR,0.258 GR,0.374 GR,0.397 GR,0.791 GR,0.736 GR,0.798 GR,0.944 GR,0.439 GR,0.399 GR
O=C1NC(=O)[C@@H](c2cn3c4c(cccc24)CCC3)[C@@H]1c1c[nH]c2ccccc12 [Tivantinib/ARQ197] (max 10 µM),0.29 GR,0.49 GR,0.667 GR,0.446 GR,0.528 GR,0.475 GR,0.277 GR,0.416 GR,0.457 GR,0.361 GR,0.648 GR,0.403 GR
Nc1ccc(-c2ccc3ncc4ccc(=O)n(-c5cccc(C(F)(F)F)c5)c4c3c2)cn1 [Torin2] (max 1 µM),0.291 GR,0.437 GR,0.9 GR,0.388 GR,0.0743 GR,0.486 GR,0.473 GR,0.536 GR,0.346 GR,0.501 GR,0.339 GR,0.295 GR
CC[C@@H]1C(=O)N(C)c2cnc(Nc3ccc(C(=O)N[C@H]4CC[C@H](N5CCN(CC6CC6)CC5)CC4)cc3OC)nc2N1C(C)C [Volasertib/BI6727] (max 1 µM),0.497 GR,0.928 GR,0.734 GR,0.726 GR,0.831 GR,0.664 GR,0.38 GR,0.79 GR,0.753 GR,0.741 GR,0.415 GR,0.392 GR
O=C(CCCCCCC(=O)Nc1ccccc1)NO [Vorinostat] (max 10 µM),0.193 GR,0.217 GR,0.393 GR,0.24 GR,0.545 GR,0.166 GR,0.202 GR,0.151 GR,0.276 GR,0.162 GR,0.153 GR,0.148 GR
C=CC(=O)Nc1ccc(C(=O)Nc2[nH]nc3c2CN(C(=O)N[C@H](CN(C)C)c2ccccc2)C3(C)C)cc1 [YKL-5-124] (max 10 µM),0.861 GR,1.11 GR,1.02 GR,1.01 GR,0.849 GR,0.703 GR,0.706 GR,0.693 GR,0.831 GR,0.8 GR,0.889 GR,0.857 GR
CN1CCN(C(=O)c2ccc3cc(CCNc4ncnc5ccc(C#N)cc45)ccc3c2)CC1 [senexin b] (max 10 µM),0.286 GR,0.28 GR,0.421 GR,0.0969 GR,-0.125 GR,0.175 GR,0.182 GR,0.275 GR,0.274 GR,0.219 GR,0.177 GR,0.0855 GR
